Marks after values point to notes of the source that are not given here.
Columns and labels:
[1] = Rat serum assay (release of NRB or NRB analogue); type: in vitro ADME; conditions: 80% rat serum, 37° C., 3 h, n = 3
Outline: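 Compound (200 μM final) incubated in 80% rat serum diluted with 0.1 M phosphate pH 7.4, 2.5% DMSO, 37 °C for 3 h, n=3, then quenched in ice-cold acetonitrile. NRB or analogue release was quantified by RP-LCMS against external calibration curves, expressed as percent released.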

[2] = Simulated gastric fluid (SGF) hydrolytic stability assay; type: physicochemical; conditions: simulated gastric fluid without pepsin, pH 1.2, 37° C., 1 h, n = 3; for % NRB released, Hydrolytic Stability (simulated gastric fluid): footnote c: compounds not exhibiting vasoconstriction
Outline: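 Compounds at 200 μM final (2.5% DMSO) were held 1 h at 37 °C in pepsin-free USP simulated gastric fluid (0.03 M NaCl, pH 1.2 with HCl), n=3. […] was quantified by RP-LCMS.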

Sprague Dawley rats [3] = test: In vivo lethality, intravenous injection via the tail; design: species or system rat (Sprague Dawley); conditions: rat
Outline: (§1)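 Sprague Dawley rats (150-200 g) received compound dissolved in 0.2 M HCl (5% DMSO overall) at the desired dose, by oral gavage or tail-vein i.v. injection. Animals were watched for early toxicity signs every minute (i.v.) or every 15 min (oral).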

rat caudal artery = test: Rat caudal artery ring contractile force (vasoconstrictory activity); design: species or system rat (male Wistar)
Outline: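 Endothelium-denuded caudal artery rings from male Wistar rats were held at 2 g resting tension in Tyrode solution (37° C, pH 7.35, 95% O2/CO2) and isometric force was recorded. Compounds were tested at 50 μM, with contraction expressed as percent of the 90 mM KCl response.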

Sprague Dawley rats [4] = test: In vivo lethality, oral gavage; design: species or system rat (Sprague Dawley); conditions: rat; for Time to Death (min) / Onset of Symptoms: mean time; for Onset of Symptoms: visual signs of distress consistent with NRB-like symptoms; for In vivo lethality (oral): n = 2
Outline: as §1

[5] = Rat liver S9 fraction assay (release of NRB or NRB analogue); type: in vitro ADME, rat (male Sprague-Dawley); conditions: 1 mg/mL rat liver S9 fraction, 37° C., 6 h, n = 3
Experimental: The hydrolytic stability of compounds of the invention was also evaluated in vitro using rat liver S9 fraction (20 mg/mL), pooled from male rat (Sprague-Dawley), obtained from Sigma-Aldrich, diluted to 1 mg/mL with phosphate buffer (0.1 M, pH 7.4) and stored at −78° C. Similar assay conditions to those reported by Li Di and co-workers (Int. J. Pharm. 2005, 297, 110-119) were followed [200 μL total volume, 1 mg/mL rat liver S9 fraction (diluting with phosphate buffer (0.1 M, pH 7.4)), at a final compound concentration of 200 μM, 2.5% DMSO overall, 37° C., 6 h, n=3]. The assay protocol followed is as that described above for the rat serum assay, with an adjusted end-point of 6 h.

Sprague Dawley rats [6] = test: Palatability (no-choice) trial, peanut butter bait; type: in vivo, rat (Sprague Dawley); conditions: 1% w/w toxicant in peanut butter bait, n = 6, 3 male and 3 female rats
Description: In the palatability trials, Sprague Dawley rats (ca. 250 g) were presented with 1% w/w compound (n=6) or 0.5% w/w compound (n=5) in a peanut butter bait, following 3 days ‘pre-baiting’ with a peanut butter formulation free of toxicant.

Sprague Dawley rats [7] = test: Palatability (choice) trial, peanut butter bait; type: in vivo, rat (Sprague Dawley); conditions: choice of EPA diet (20 g) and bait with 1% w/w toxicant (20 g), 2 days, n = 2; Table 15
Sprague Dawley rats [8] = test: Palatability (no-choice) trial, peanut butter bait; type: in vivo, rat (Sprague Dawley); conditions: 2% w/w toxicant in peanut butter bait, n = 6, Table 12
[9] = Table 5, compounds of formula (III)

Molecule	% NRB released, Rat Serum [1]	% NRB released, Hydrolytic Stability (simulated gastric fluid) [2]	In vivo lethality (i.v.) (Sprague Dawley rats [3]; 20 mg/Kg, n = 2)	Vasoconstriction: maximum contractile effect as a % of 90 mM KCl contraction (rat caudal artery; Table 1, compound at 50 μM)	Vasoconstriction: maximum contractile effect as a % of 90 mM KCl contraction (rat caudal artery; Table 4, pre-cleavage, n = 3)	Time to Death (min) (Sprague Dawley rats [4]; 20 mg/Kg)	Onset of Symptoms (Sprague Dawley rats [4]; 20 mg/Kg)	In vivo lethality (oral) (Sprague Dawley rats [4]; 20 mg/Kg)	In vivo lethality (oral) (Sprague Dawley rats [4]; 40 mg/Kg)	% NRB released, Rat Liver S9 [5]	% NRB released, Hydrolytic Stability [2]	In vivo lethality (i.v.) (Sprague Dawley rats [3]; 20 mg/Kg, n = 2, Table 6)	Vasoconstriction: maximum contractile effect as a % of 90 mM KCl contraction (rat caudal artery; [9])	Vasoconstriction: maximum contractile effect as a % of 90 mM KCl contraction (rat caudal artery; n = 3, pre-cleavage, Table 6)	No of deaths (Sprague Dawley rats [6]; Table 11)	In vivo lethality (i.v.) (Sprague Dawley rats [3]; 10 mg/Kg, n = 2, Table 6)	No of deaths (Sprague Dawley rats [7])	No of deaths (Sprague Dawley rats [6]; Table 12)	Vasoconstriction: maximum contractile effect as a % of 90 mM KCl contraction (rat caudal artery; Table 2, compound at 50 μM)	No of deaths (Sprague Dawley rats [8])
5-(α-Hydroxy-α-2-pyridylbenzyl)-N-2′-phenylpropioyloxyethyl-7-(α-2-pyridylbenzylidene)-5-norbornene-2,3-dicarboximide [Compound 123]	84.5 ± 2.0%	0^c %	yes^f	0%	0%	35^d min	15 min	yes^h,i	yes^h,i	55.6 ± 4.1%										
O=C(OCN1C(=O)C2C3C=C(C(O)(c4ccccc4)c4ccccn4)C(C3=C(c3ccccc3)c3ccccn3)C2C1=O)c1ccc2ccccc2c1 (stereo not drawn) [Compound 20, 5-(α-Hydroxy-α-2-pyridylbenzyl)-2′-naphthoyloxymethyl-7-(α-2-pyridylbenzylidene)-5-norbornene-2,3-dicarboximide]	31.3 ± 2.7%	0^c %	yes^f	0%	0%				no^h	20.2 ± 0.8%										
O=C(CCCCCCCCC(=O)OCN1C(=O)C2C3C=C(C(O)(c4ccccc4)c4ccccn4)C(C3=C(c3ccccc3)c3ccccn3)C2C1=O)OCN1C(=O)C2C3C=C(C(O)(c4ccccc4)c4ccccn4)C(C3=C(c3ccccc3)c3ccccn3)C2C1=O (stereo not drawn) [Compound 24, 5-(α-Hydroxy-α-2-pyridylbenzyl)-7-(α-2-pyridylbenzylidene)-N-sebacoyloxymethyl-5-norbornene-2,3-dicarboximide dimer]	8.6 ± 0.5%									6.2 ± 0.2%	0%	no^e	0%	0%						
CCCCCCCC(=O)OCCN1C(=O)C2C3C=C(C(O)(c4ccccc4)c4ccccn4)C(C3=C(c3ccccc3)c3ccccn3)C2C1=O (stereo not drawn) [Compound 111, 5-(α-Hydroxy-α-2-pyridylbenzyl)-N-2′-octanoyloxyethyl-7-(α-2-pyridylbenzylidene)-5-norbornene-2,3-dicarboximide]	87.9 ± 0.7%	20^c %		0%	0%	>120^e min	15 min			48.5 ± 8.5%					6/6					
O=C(OCCN1C(=O)C2C3C=C(C(O)(c4ccccc4)c4ccccn4)C(C3=C(c3ccccc3)c3ccccn3)C2C1=O)C(c1ccccc1)c1ccccc1 (stereo not drawn) [Compound 118]	<5%	0^c %	yes^f	0%	0%				no^h	9.0 ± 0.7%										
O=C(OCCN1C(=O)C2C3C=C(C(O)(c4ccccc4)c4ccccn4)C(C3=C(c3ccccc3)c3ccccn3)C2C1=O)c1ccc2ccccc2c1 (stereo not drawn) [Compound 122, 5-(α-Hydroxy-α-2-pyridylbenzyl)-N-[2′-(2″-naphthoyloxy)ethyl]-7-(α-2-pyridylbenzylidene)-5-norbornene-2,3-dicarboximide]	14.4 ± 3.0%	0^c %	yes^f	0%	0%			yes^h,i	yes^h,i	14.1 ± 0.5%										
O=C(C=Cc1ccccc1)OCCCN1C(=O)C2C3C=C(C(O)(c4ccccc4)c4ccccn4)C(C3=C(c3ccccc3)c3ccccn3)C2C1=O (stereo not drawn) [Compound 136, N-3′-Cinnamoyloxypropyl-5-(α-hydroxy-α-2-pyridylbenzyl)-7-(α-2-pyridylbenzylidene)-5-norbornene-2,3-dicarboximide]	76.5 ± 5.7%	0^c %	yes^f	0%	0%	not lethal	20 min		yes^h	18.2 ± 2.7%										
O=C(CCCCCCCCC(=O)OCCN1C(=O)C2C3C=C(C(O)(c4ccccc4)c4ccccn4)C(C3=C(c3ccccc3)c3ccccn3)C2C1=O)OCCN1C(=O)C2C3C=C(C(O)(c4ccccc4)c4ccccn4)C(C3=C(c3ccccc3)c3ccccn3)C2C1=O (stereo not drawn) [Compound 141, 5-(α-Hydroxy-α-2-pyridylbenzyl)-7-(α-2-pyridylbenzylidene)-N-2′-sebacoyloxyethyl-5-norbornene-2,3-dicarboximide dimer]	<5%									<5%	0%		0%	0%		no^f				
O=C(CCC(=O)OCCN1C(=O)C2C3C=C(C(O)(c4ccccc4)c4ccccn4)C(C3=C(c3ccccc3)c3ccccn3)C2C1=O)OCCOC(=O)CCC(=O)OCCN1C(=O)C2C3C=C(C(O)(c4ccccc4)c4ccccn4)C(C3=C(c3ccccc3)c3ccccn3)C2C1=O (stereo not drawn) [Compound 144, N-[2′-Ethylenebis(hydrogensuccinoyloxy)ethyl]-5-(α-hydroxy-α-2-pyridylbenzyl)-7-(α-2-pyridylbenzylidene)-5-norbornene-2,3-dicarboximide dimer]	14.5 ± 0.8%									<5%	0%		0%	0%		no^f				
CCCCCCCCCCCC(=O)NCCN1C(=O)C2C3C=C(C(O)(c4ccccc4)c4ccccn4)C(C3=C(c3ccccc3)c3ccccn3)C2C1=O (stereo not drawn) [Compound 339, N-2′-Dodecanamidoethyl-5-(α-hydroxy-α-2-pyridylbenzyl)-7-(α-2-pyridylbenzylidene)-5-norbornene-2,3-dicarboximide]					0%	300^e min	200 min		yes^h								3/12	3/6	0%	5/6

Source: patent US9198420B2, “Rodenticidal norbormide analogues” (priority 2012, dated 2015)
